Source: BigSolDB 2.1

Nc1cccc(N)n1
Settings | solubility (mole fraction)
in ethanol, 266.95 K | 0.0751
in ethanol, 270.35 K | 0.0853
in ethanol, 274.15 K | 0.0992
in ethanol, 277.45 K | 0.108
in ethanol, 281.15 K | 0.123
in ethanol, 286.35 K | 0.148
in ethanol, 290.15 K | 0.166
in ethanol, 293.55 K | 0.182
in ethanol, 297.15 K | 0.204
in ethanol, 301.15 K | 0.226
in ethanol, 304.55 K | 0.236
in ethanol, 307.95 K | 0.266
in ethanol, 312.05 K | 0.282
in ethanol, 316.25 K | 0.319
in ethanol, 321.25 K | 0.342
in ethylbenzene, 273.25 K | 0.00022
in ethylbenzene, 277.15 K | 0.00026
in ethylbenzene, 282.25 K | 0.00033
in ethylbenzene, 285.55 K | 0.00035
in ethylbenzene, 289.45 K | 0.00046
in ethylbenzene, 293.05 K | 0.00049
in ethylbenzene, 298.65 K | 0.00066
in ethylbenzene, 302.25 K | 0.00069
in ethylbenzene, 305.35 K | 0.00086
in ethylbenzene, 309.55 K | 0.0009
in ethylbenzene, 313.15 K | 0.00113
in ethylbenzene, 317.35 K | 0.0012
in ethylbenzene, 321.25 K | 0.0015
in ethylbenzene, 326.15 K | 0.00164
in ethylbenzene, 329.45 K | 0.00197
in ethylbenzene, 333.35 K | 0.00212
in ethylbenzene, 336.95 K | 0.00252
in ethylbenzene, 341.05 K | 0.00288
in ethylbenzene, 346.25 K | 0.0033
in ethylbenzene, 349.55 K | 0.00385
in ethylbenzene, 353.05 K | 0.0043
in ethylbenzene, 357.05 K | 0.00474
in ethylbenzene, 361.15 K | 0.00577
in isopropanol, 266.25 K | 0.0222
in isopropanol, 269.95 K | 0.028
in isopropanol, 274.15 K | 0.0302
in isopropanol, 277.55 K | 0.0379
in isopropanol, 281.15 K | 0.0401
in isopropanol, 285.65 K | 0.0512
in isopropanol, 290.15 K | 0.0565
in isopropanol, 293.65 K | 0.068
in isopropanol, 297.25 K | 0.0732
in isopropanol, 301.15 K | 0.0887
in isopropanol, 305.15 K | 0.0976
in isopropanol, 308.25 K | 0.114
in isopropanol, 311.15 K | 0.12
in isopropanol, 315.85 K | 0.147
in isopropanol, 319.25 K | 0.159
in methanol, 266.15 K | 0.0598
in methanol, 269.95 K | 0.066
in methanol, 274.15 K | 0.0779
in methanol, 278.05 K | 0.0888
in methanol, 281.15 K | 0.0933
in methanol, 285.95 K | 0.111
in methanol, 290.15 K | 0.125
in methanol, 297.15 K | 0.15
in methanol, 301.15 K | 0.165
in methanol, 304.55 K | 0.178
in methanol, 307.95 K | 0.188
in methanol, 311.15 K | 0.207
in methanol, 317.85 K | 0.233
in o-xylene, 273.35 K | 0.00128
in o-xylene, 277.15 K | 0.0014
in o-xylene, 282.25 K | 0.00185
in o-xylene, 285.55 K | 0.00201
in o-xylene, 289.45 K | 0.00252
in o-xylene, 293.65 K | 0.00283
in o-xylene, 297.55 K | 0.00351
in o-xylene, 302.25 K | 0.00395
in o-xylene, 305.35 K | 0.00469
in o-xylene, 309.55 K | 0.00517
in o-xylene, 314.15 K | 0.0064
in o-xylene, 317.35 K | 0.00695
in o-xylene, 321.25 K | 0.00838
in o-xylene, 325.95 K | 0.00937
in o-xylene, 329.45 K | 0.011
in o-xylene, 333.35 K | 0.0121
in o-xylene, 336.95 K | 0.0144
in o-xylene, 341.15 K | 0.0153
in o-xylene, 346.25 K | 0.0194
in o-xylene, 349.55 K | 0.0226
in o-xylene, 353.45 K | 0.024
in o-xylene, 357.05 K | 0.0292
in o-xylene, 361.05 K | 0.034
in o-xylene, 361.25 K | 0.0367
in toluene, 273.25 K | 0.00149
in toluene, 277.15 K | 0.00191
in toluene, 281.25 K | 0.00214
in toluene, 285.55 K | 0.0027
in toluene, 289.45 K | 0.00304
in toluene, 293.65 K | 0.00375
in toluene, 297.55 K | 0.00417
in toluene, 301.45 K | 0.0051
in toluene, 305.35 K | 0.00558
in toluene, 309.55 K | 0.00704
in toluene, 313.45 K | 0.00733
in toluene, 317.35 K | 0.00919
in toluene, 321.25 K | 0.00942
in toluene, 325.55 K | 0.0124
in toluene, 329.45 K | 0.0127
in toluene, 333.35 K | 0.0162
in toluene, 337.25 K | 0.0164
in toluene, 341.15 K | 0.0207
in toluene, 345.65 K | 0.022
in toluene, 349.55 K | 0.0277
in toluene, 353.45 K | 0.0283
in toluene, 357.35 K | 0.0355
